Assay results published in article PMC10447463, “Data-mining unveils structure–property–activity correlation of viral infectivity enhancing self-assembling peptides” (Nature Communications, 2023).
Read-outs that look alike come from different tables or passages of the source.

What was measured:
[1] = system: HIV-1 infection of TZM-bl cells; test: HIV-1 infectivity enhancement assay, β-galactosidase luminescence; format: cell-based; settings: for Rel-EFC / Log10 Infection Rel EFC: 1.3 µM peptide; for Rel-EFC: infection relative to EF-C (QCKIKQIINMWQ = 1); for Log10 Infection Rel EFC: log10 of infection relative to EF-C; for Log Infectivity: Log10 infection relative to EF-C, TZM-bl cells, asymmetric std dev errors; for Log10 Infection Rel EF-C: HIV-1 infection of TZM-bl cells; for Log10 of Rel to EFC (Feb2021): Log10 of infection relative to EF-C, all peptides of FigS16; for Abs. Inf.: absolute infection signal, HIV-1 on TZM-bl cells, β-galactosidase luminescence; for Log10 Inf. rel. to EF-C: log10 of HIV-1 infection of TZM-bl cells relative to EF-C (EF-C = 0)
[2] = β-sheet content by ATR-FT-IR; format: physicochemical; settings: Fig. S7 panel A; β-sheet content by ATR-FT-IR
Summary of the method: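 Fluorescamine labelling (20 min RT, λex 365/λem 470 nm) of 3 kDa-MWCO filtrate and unfiltered fibril samples, redissolved in DMSO, gave conversion rate as 100 minus the percentage filtrate/original intensity, in triplicate. Secondary structure was quantified by ATR FT-IR on lyophilized 1 mg/mL fibrils, 64 scans.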

[3] = Zeta-potential measurement; format: physicochemical
Summary of the method: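 Zeta potentials of aggregated peptides come from electrophoretic mobility (Smoluchowski model) in 1 mM KCl after a 1 d RT incubation at 1 mg/mL in PBS, pH 7.4.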

[4] = Turbidity, derived count rate of scattered light; format: physicochemical; settings: for Count Rate / kcps: derived count rate of scattered light at 633 nm, 173°, from zeta-potential measurement, 0.1 mg/mL in 1 mM KCl after 1 d at 1 mg/mL in PBS, turbidity / microscopic aggregation, mean of triplicate
Summary of the method: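 Samples: 1 mg/mL in PBS pH 7.4 (from DMSO), 1 d at RT, then diluted in 1 mM KCl immediately before measurement. Triplicates, two independent runs averaged.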

[5] = Turbidity, derived count rate of scattered light; format: physicochemical; settings: for Count Rate: derived count rate of scattered light (turbidity); for Log10 Count Rate: turbidity, derived count rate of scattered light, data of Figure 2D
[6] = Fig. S7 panel A (plotted against β-sheet content)
[7] = Log10 of infection rate relative to EF-C, Figure 3A source data
[8] = infection rate relative to EF-C, log10, data of Figure 2D
[9] = infection rate relative to EF-C, log10, source data of Figure 2C
[10] = zeta-potential of peptide, source data of Figure 2C
[11] = zeta-potential of the peptide assemblies, mean, Figure 3A source data
[12] = Log10 of derived count rate of scattered light (turbidity)
[13] = logarithm of count rate in kcps
[14] = turbidity, Log10 of derived count rate of scattered light, Figure 3A source data
[15] = turbidity, log10 of derived count rate of scattered light
[16] = zeta potential of peptide assemblies

Substance: QCKIKIQINMWQ
- Rel-EFC [1]: 1,04
- Log10 Infection Rel EFC [1]: 0,02
- Log Infectivity [1, 6]: 0.01546
- Log Infectivity ([1]; Fig. S7 panel B (plotted against CR), rounded to two decimals): 0.02
- Log10 Infection Rel EF-C [1, 7]: 0.02
- Log10 Infection Rel EF-C [1, 8]: 0.01546
- Log10 Infection Rel EF-C [1, 9]: 0.01546
- Log10 of Rel to EFC (Feb2021) [1]: 0.02
- Abs. Inf. [1]: 21221.11111
- Log10 Inf. rel. to EF-C [1]: 0.01546
- b -sheet / % [2]: 36.23%
- Zeta-Pot. [3]: 11.73
- Zeta-Potential / mV [3, 10]: 11.38 mV
- Zeta-Potential / mV [3, 11]: 11.73 mV
- Log10 Count Rate [4, 12]: 3.918
- Count Rate ([4]; T0, mean of n = 3): 9558.2 kcps
- Count Rate ([4]; T2m, mean of n = 3): 6927 kcps
- Count Rate / kcps [4]: 8271 kcps
- Log10 Count Rate [4, 13]: 3.918
- Log10 Count Rate [4, 14]: 3.918
- Log10 Count Rate [4, 15]: 3.918
- Count Rate [5]: 8271
- Log10 Count Rate [5]: 3.918

Substance: KIKIQINMWA
- Rel-EFC [1]: 0,69
- Log10 Infection Rel EFC [1]: -0,16
- Log Infectivity [1, 6]: -0.1642
- Log10 Infection Rel EF-C [1, 7]: -0.16
- Log10 Infection Rel EF-C [1, 8]: -0.1642
- Log10 Infection Rel EF-C [1, 9]: -0.1642
- Log10 of Rel to EFC (Feb2021) [1]: -0.16
- Log10 Inf. rel. to EF-C [1]: -0.1642
- b -sheet / % [2]: 49.91%
- Zeta-Pot. [3, 16]: 14.7
- Zeta-Potential / mV [3, 10]: 16.43 mV
- Zeta-Potential / mV [3, 11]: 14.7 mV
- Log10 Count Rate [4, 12]: 3.042
- Count Rate / kcps [4]: 1101 kcps
- Log10 Count Rate [4, 14]: 3.042
- Log10 Count Rate [4, 15]: 3.042
- Count Rate [5]: 1101.2
- Log10 Count Rate [5]: 3.042

Substance: KIKIQIAMWQ
- Rel-EFC [1]: 0,39
- Log10 Infection Rel EFC [1]: -0,41
- Log Infectivity [1, 6]: -0.4109
- Log10 Infection Rel EF-C [1, 7]: -0.41
- Log10 Infection Rel EF-C [1, 8]: -0.4109
- Log10 Infection Rel EF-C [1, 9]: -0.4109
- Log10 of Rel to EFC (Feb2021) [1]: -0.41
- Log10 Inf. rel. to EF-C [1]: -0.4109
- b -sheet / % [2]: 37.48%
- Zeta-Pot. [3, 16]: 11.3
- Zeta-Potential / mV [3, 10]: 13.33 mV
- Zeta-Potential / mV [3, 11]: 11.3 mV
- Log10 Count Rate [4, 12]: 2.733
- Count Rate / kcps [4]: 541 kcps
- Log10 Count Rate [4, 14]: 2.733
- Log10 Count Rate [4, 15]: 2.733
- Count Rate [5]: 540.9
- Log10 Count Rate [5]: 2.733

Substance: KIKQIIN
- Rel-EFC [1]: 0,04
- Log10 Infection Rel EFC [1]: -1,4
- Log Infectivity [1, 6]: -1.4
- Log10 Infection Rel EF-C [1, 7]: -1.4
- Log10 Infection Rel EF-C [1, 8]: -1.4
- Log10 Infection Rel EF-C [1, 9]: -1.4
- Log10 Inf. rel. to EF-C [1]: -1.4
- b -sheet / % [2]: 37.69%
- Zeta-Pot. [3, 16]: -11.7
- Zeta-Potential / mV [3, 10]: -5.929 mV
- Zeta-Potential / mV [3, 11]: -11.7 mV
- Log10 Count Rate [4, 12]: 1.806
- Count Rate / kcps [4]: 64 kcps
- Log10 Count Rate [4, 13]: 1.806
- Log10 Count Rate [4, 14]: 1.806
- Log10 Count Rate [4, 15]: 1.806
- Count Rate [5]: 64.03
- Log10 Count Rate [5]: 1.806

Substance: NMWQKAKAQA
- Rel-EFC [1]: 0,04
- Log10 Infection Rel EFC [1]: -1,38
- Log Infectivity [1, 6]: -1.376
- Log10 Infection Rel EF-C [1, 7]: -1.38
- Log10 Infection Rel EF-C [1, 8]: -1.376
- Log10 Infection Rel EF-C [1, 9]: -1.376
- Abs. Inf. [1]: 1137
- Log10 Inf. rel. to EF-C [1]: -1.376
- b -sheet / % [2]: 37.34%
- Zeta-Pot. [3]: -5.56
- Zeta-Potential / mV [3, 10]: -4.582 mV
- Zeta-Potential / mV [3, 11]: -5.56 mV
- Log10 Count Rate [4, 12]: 2.384
- Count Rate / kcps [4]: 242 kcps
- Log10 Count Rate [4, 14]: 2.384
- Log10 Count Rate [4, 15]: 2.384
- Count Rate [5]: 242.2
- Log10 Count Rate [5]: 2.384

Substance: FKFDKFKFDK
- Rel-EFC [1]: 0,05
- Log10 Infection Rel EFC [1]: -1,33
- Log Infectivity [1, 6]: -1.334
- Log10 Infection Rel EF-C [1, 7]: -1.33
- Log10 Infection Rel EF-C [1, 8]: -1.334
- Log10 Infection Rel EF-C [1, 9]: -1.334
- Abs. Inf. [1]: 513.3
- Log10 Inf. rel. to EF-C [1]: -1.334
- b -sheet / % [2]: 46.64%
- Zeta-Pot. [3]: -12.7
- Zeta-Potential / mV [3, 10]: -8.027 mV
- Zeta-Potential / mV [3, 11]: -12.7 mV
- Log10 Count Rate [4, 12]: 1.6545
- Count Rate / kcps [4]: 45 kcps
- Log10 Count Rate [4, 14]: 1.6545
- Log10 Count Rate [4, 15]: 1.6545
- Count Rate [5]: 45.13
- Log10 Count Rate [5]: 1.6545
